Results: ChEMBL document CHEMBL5620382, “Fluoroindole chalcone analogues targeting the colchicine binding site of tubulin for colorectal oncotherapy” (Eur J Med Chem, 2023)
Activity calls are given as the source filed them. The rule behind the calls is not given here.

Legend:
HCT-116 [1] = test: Induction of endoplasmic reticulum (ER) stress in human HCT-116 cells assessed as increase p-IRE1alpha expression at 10 to 20 nM measured after 24 hrs by Western blot analysis; type: functional, cell-based; conditions: dose 10-20 nM
HCT-116 [2] = test: Induction of endoplasmic reticulum (ER) stress in human HCT-116 cells assessed as increase p-eIF2alpha expression at 10 to 20 nM measured after 24 hrs by Western blot analysis; type: functional, cell-based; conditions: dose 10-20 nM
HCT-116 [3] = test: Induction of cell cycle arrest in human HCT-116 cells […] assessed as accumulation of cells at G2/M phase at 2.5 to 10 nM by flow cytometry analysis; type: functional, cell-based; conditions: dose 2.5-10 nM
[4] = Toxicity in BALB/c mouse xenografted with human HCT-116 cells assessed as organ toxicity at 3 mg/kg, ip thrice a week for three weeks by […]; type: organism-based; conditions: in vivo, 504 h, time 3 weeks
Mus musculus [5] = test: Antitumor activity against C57B/6-APCmin/+ mouse model assessed as increase in phosphorylation of eIF2alpha in tumors at 3 mg/kg, ip treated for 45 days relative to control; type: functional, organism-based; conditions: time 45.0 day
CT26 [6] = test: Induction of endoplasmic reticulum (ER) stress in mouse CT26 cells assessed as increase in ROS level at 20 nM measured after 24 hrs by fluorescent analysis (reference value: 14%); type: functional
CT26 [7] = test: Disruption of microtubule assembly in mouse CT26 cells assessed as reduced/disorganized microtubule network measured after 24 hrs by high-resolution microscopy; type: functional, cell-based
HCT-116 [8] = test: Induction of mitochondrial damage in human HCT-116 cells at 10 to 20 nM measured after 24 hrs by transmission electron microscope (TEM) analysis; type: functional, cell-based; conditions: dose 10-20 nM
Tubulin (Homo sapiens) [9] = target: T1, Tubulin (Homo sapiens) (UniProt P68371+Q9H4B7+P0DPH7+P68366+Q13509+Q71U36+P04350+Q3ZCM7+P07437+P68363+Q9BQE3+Q6PEY2+Q13885+Q9BVA1+Q9BUF5); test: Inhibition of tubulin polymerization (unknown origin); type: protein-complex assay; conditions: dose 12.5-100 µM
CT26 [10] = test: Induction of endoplasmic reticulum (ER) stress in mouse CT26 cells assessed as increase in ROS level at 5 nM measured after 24 hrs by fluorescent analysis (reference value: 14%); type: functional
CT26 [11] = test: Induction of apoptosis in mouse CT26 cells assessed as dead cells at 2.5 to 40 nM measured after 24 hrs by PI/Annexin V-FITC staining based flow cytometry; type: functional, cell-based; conditions: dose 2.5-40 nM
PC-12 = test: Antiproliferative activity against rat PC12 cells assessed as inhibition of proliferation at 2.5 to 20 nM measured after 24 hrs by CCK-8 assay; type: toxicity, cell-based; conditions: pc-12, 24 h, 0.02 µM, dose 2.5-20 nM
CT26 [12] = test: Antiproliferative activity against mouse CT26 cells assessed as inhibition of proliferation measured after 24 hrs by CCK-8 assay; type: functional, cell-based; conditions: CT26, 24 h
HCT-116 [13] = test: Induction of endoplasmic reticulum (ER) stress in human HCT-116 cells assessed as increase in ROS level at 10 to 20 nM measured after 24 hrs by DCFH-DA analysis; type: functional, cell-based; conditions: dose 10-20 nM
CT26 [14] = test: Induction of endoplasmic reticulum (ER) stress in mouse CT26 cells assessed as increase in ROS level at 40 nM measured after 24 hrs by fluorescent analysis (reference value: 14%); type: functional
HCT-116 [15] = test: Induction of apoptosis in human HCT116 cells assessed as dead cells at 2.5 to 20 nM measured after 24 hrs by PI/Annexin V-FITC staining based flow cytometry; type: functional, cell-based; conditions: dose 2.5-20 nM
HCT-116 [16] = test: Induction of mitochondrial dysfunction in human HCT-116 cells assessed as reduction in oxygen consumption rate (OCR) incubated for 24 hrs; type: functional, cell-based; conditions: dose 1.25-20 µM
HCT-116 [17] = test: Cytotoxicity against human HCT-116 cells assessed as growth inhibition measured after 24 hrs in presence of GSK2606414 PERK inhibitor by CCK-8 assay; type: functional, cell-based
HCT-116 [18] = test: Cytotoxicity against human HCT-116 cells assessed as growth inhibition at 1.25 to 20 uM measured after 24 hrs in presence of ROS scavenger NAC by CCK-8 assay; type: functional, cell-based; conditions: dose 1.25-20 µM
Tubulin (Homo sapiens) [19] = target: T1, Tubulin (Homo sapiens); test: Disruption of microtubule assembly in human HCT-116 cells assessed as reduced/disorganized microtubule network measured after 24 hrs by high-resolution microscopy; type: cell-based
Colon cancer organoid = test: Antitumor activity against patient-derived Colorectal cancer organoid model assessed as inhibition of organoid growth by immunofluorescence assay; type: functional, tissue-based; conditions: Homo sapiens
Mus musculus [20] = test: Antitumor activity against C57B/6-APCmin/+ mouse model assessed as increase in phosphorylation of IRE1alpha in tumors at 3 mg/kg, ip treated for 45 days relative to control; type: functional, organism-based; conditions: time 45.0 day
HCT-116 [21] = test: Induction of endoplasmic reticulum (ER) stress in human HCT-116 cells assessed as rough long-linear and irregularly dilated with locally verified expansion at 10 to 20 nM measured after 24 hrs by transmission electron microscope (TEM) analysis; type: functional, cell-based; conditions: dose 10-20 nM
CT26 [22] = test: Induction of endoplasmic reticulum (ER) stress in mouse CT26 cells assessed as increase in ROS level at 10 nM measured after 24 hrs by fluorescent analysis (reference value: 14%); type: functional
[23] = Toxicity in BALB/c mouse xenografted with human HCT116 cells assessed as side effects at 1.5 to 3 mg/kg, ip thrice a week for three weeks; type: organism-based, HCT-116; conditions: in vivo, 504 h, dose 1.5-3 mg/kg, time 3 weeks
CT26 [24] = test: Induction of mitochondrial damage in mouse CT26 cells at 10 to 40 nM measured after 24 hrs by transmission electron microscope (TEM) analysis; type: functional, cell-based; conditions: dose 10-40 nM
Tubulin (Homo sapiens) [25] = target: T1, Tubulin (Homo sapiens); test: Stabilization of microtubule in human HCT-116 cells at […] incubated for 1 hrs by CETSA; type: cell-based
HCT-116 [26] = test: Induction of mitochondrial dysfunction in human HCT-116 cells assessed as change in mitochondrial membrane potential (MMP) by JC-1 fluorescence assay; type: functional, cell-based; conditions: dose 1.25-20 µM
Homo sapiens = organism: Homo sapiens; test: Binding affinity to tubulin mutant (unknown origin) by MST analysis
[27] = Toxicity in C57BL/6-APCmin/+ mouse model assessed as change in body weight at 3 mg/kg, ip treated for 45 days; type: organism-based; conditions: in vivo, 1080 h, time 45 day
CT26 [28] = test: Induction of endoplasmic reticulum (ER) stress in mouse CT26 cells assessed as organelle vacuoles at 10 to 20 nM measured after 24 hrs by transmission electron microscope (TEM) analysis; type: functional, cell-based; conditions: dose 10-20 nM
HCT-116 [29] = test: Cytotoxicity against human HCT-116 cells assessed as growth inhibition measured after 48 hrs by CCK-8 assay; type: functional
[30] = Toxicity in BALB/c mouse xenografted with human HCT116 cells assessed as change in body weight at 1.5 to 3 mg/kg, ip thrice a week for three weeks; type: organism-based, HCT-116; conditions: in vivo, 504 h, dose 1.5-3 mg/kg, time 3 weeks
Tubulin = test: Binding affinity to wild type tubulin (unknown origin) by MST analysis; type: protein-complex assay, Homo sapiens
CT26 [31] = test: Induction of endoplasmic reticulum (ER) stress in mouse CT26 cells assessed as rough long-linear and irregularly dilated with locally verified expansion at 10 to 20 nM measured after 24 hrs by transmission electron microscope (TEM) analysis; type: functional, cell-based; conditions: dose 10-20 nM

inhibition (Tubulin (Homo sapiens) [9]): Dose-Dependent Effect
IC50 (CT26 [12]): 18.7 nM
Activity (Tubulin (Homo sapiens) [19]): Active
IC50 (Colon cancer organoid): 2.06 nM
Activity (Tubulin (Homo sapiens) [25]): inactive
Activity (Homo sapiens): inactive
Kd (Tubulin): 136 nM
SMILES: COc1cc(C(=O)/C(C)=C/c2c[nH]c3cc(F)ccc23)cc(OC)c1OC
Activity (HCT-116 [1]): Active
Activity (HCT-116 [2]): Active
Activity (HCT-116 [3]): Active
Activity [4]: Non-Toxic
Activity (Mus musculus [5]): Active
Activity (CT26 [6]): 60.1%
Activity (CT26 [7]): Active
Activity (HCT-116 [8]): Active
Activity (CT26 [10]): 15%
Activity (CT26 [11]): Active
Activity (PC-12): Non-Toxic
Activity (HCT-116 [13]): Active
Activity (CT26 [14]): 59.1%
Activity (HCT-116 [15]): Active
Activity (HCT-116 [16]): Dose-Dependent Effect
Activity (HCT-116 [17]): inactive
Activity (HCT-116 [18]): inactive
Activity (Mus musculus [20]): Active
Activity (HCT-116 [21]): Active
Activity (CT26 [22]): 24.4%
Activity [23]: Non-Toxic
Activity (CT26 [24]): Active
Activity (HCT-116 [26]): Dose-Dependent Effect
Activity [27]: Non-Toxic
Activity (CT26 [28]): Active
GI50 (HCT-116 [29]): 79 nM
Activity [30]: Non-Toxic
Activity (CT26 [31]): Active
